Laboratory results published in patent US11723961B2, “Maspin, maspin derivatives, and maspin mimetics for reducing ROS, inflammation, and skin aging” (Northwestern University, priority 2014, dated 2023).

Assays:
[1] = tested on: pERK1/2 in TM40DNeo, TM40DMp and TM40DT cells; assay: ERK1/2 phosphorylation (Western blot) with NAC treatment; type: cell-based, mouse
Experimental: ERK1/2 phosphorylation—Protein lysates (30 μg) were separated on 12% SDS-PAGE and phospho-plus kit was used to determine the ERK1/2 phosphorylation (Cat No. 9100, Cell Signaling Technology).

[2] = tested on: TM40DNeo, TM40DMp and TM40DT cells; assay: MTT in vitro cell proliferation assay with NAC treatment; type: cell-based, mouse
Experimental: MTT in vitro cell proliferation assay—Cells were seeded at 10^3 cells/well in 96—well plate and allowed to grow at 37° C. with 5% CO2. At each time point MTT (3-(4, 5-dimethylthiazolyl-2)-2, 5 diphenyltetrazolium bromide) reagent (5 mg/ml) was added in a volume of 10 μl per well and incubated at 37° C. with 5% CO2 for 3 hrs. The media was aspirated and 100 μl of DMSO was added and mixed until a uniform purple color was formed. The cell samples were measured using a plate reader at 570 nm. Assays were performed in triplicates.

CC(=O)N[C@@H](CS)C(=O)O [NAC, N-acetyl cysteine]
levels of activated pERK1/2 ([1]; TM40DMp cells): no change
levels of activated pERK1/2 ([1]; TM40DNeo cells): significantly reduced
levels of activated pERK1/2 ([1]; TM40DT cells): significantly reduced
proliferation rate ([2]; TM40DMp cells): no significant change
proliferation rate ([2]; TM40DNeo cells): significant drop
proliferation rate ([2]; TM40DT cells): significant drop
